Results on two molecules are retold here after ChEMBL document CHEMBL1153330, “Biochemical basis for differences in metabolism-dependent genotoxicity by two diazinylpiperazine-based 5-HT2C receptor agonists” (Bioorg Med Chem Lett, 2009).

Data set [1] deals with Salmonella typhimurium. In words: Toxic mutagenic effect in Salmonella Typhimurium TA100 assessed as increase in reverse mutants at 0.63 mg/plate segment in presence of liver S9 fraction and NADPH by reverse mutation assay relative to untreated control. Type of data set: toxicity, organism-based. Conditions: salmonella enterica subsp. enterica serovar typhimurium.
Data set [2] deals with Salmonella typhimurium. In words: Toxic mutagenic effect in Salmonella Typhimurium TA1537 assessed as increase in reverse mutants at 0.63 mg/plate segment in presence of liver S9 fraction and NADPH by reverse mutation assay relative to untreated control. Type of data set: toxicity, organism-based. To be noted: salmonella enterica subsp. enterica serovar typhimurium.
Data set [3] in a line: Metabolic stability in aroclor 1254-induced rat liver S9 fraction at 1 uM in presence of NADPH. Type of data set: ADME, subcellular.
The nature of data set [4]: Metabolic stability in human liver microsomes. Type of data set: ADME, Microsome.
Data set [5] is described as follows: Metabolic stability in human liver microsomes in presence of CYP3A4 inhibitor ketoconazole. In kind it is ADME, Microsome. To be noted: with ketoconazole (CYP3A4 inhibitor), concentration not stated. (Liver microsomes are a subcellular fraction often used to study metabolism.)
Data set [6] in a line: Metabolic stability in human liver microsomes in presence of CYP1A2 inhibitor furafylline. In kind it is ADME, Microsome. Conditions: with furafylline (CYP1A2 inhibitor), concentration not stated.
The target in the next data set is Cytochrome P450 3A4 (Homo sapiens, UniProt P08684). Description: Inhibition of CYP3A4 in human liver microsomes. Type of data set: ADME, Microsome.
The test system of data set [7] is Salmonella typhimurium. Description: Toxic mutagenic effect in Salmonella Typhimurium TA1535 assessed as increase in reverse mutants at 5 mg/plate segment after 72 hrs at 37 degC by reverse mutation assay relative to untreated control. Type of data set: toxicity, organism-based. Conditions: salmonella enterica subsp. enterica serovar typhimurium.
In data set [8] the test system is Salmonella typhimurium. In words: Toxic mutagenic effect in Salmonella Typhimurium TA100 assessed as increase in reverse mutants at 5 mg/plate segment after 72 hrs at 37 degC by reverse mutation assay relative to untreated control. To be noted: salmonella enterica subsp. enterica serovar typhimurium. In kind it is toxicity, organism-based.
For data set [9], the system named is Salmonella typhimurium. In words: Toxic mutagenic effect in Salmonella Typhimurium TA98 assessed as increase in reverse mutants at 5 mg/plate segment after 72 hrs at 37 degC by reverse mutation assay relative to untreated control. In kind it is toxicity, organism-based. To be noted: salmonella enterica subsp. enterica serovar typhimurium.
For data set [10], the system named is Salmonella typhimurium. In words: Toxic mutagenic effect in Salmonella Typhimurium TA1537 assessed as increase in reverse mutants at 5 mg/plate segment after 72 hrs at 37 degC by reverse mutation assay relative to untreated control. Type of data set: toxicity, organism-based. Conditions: salmonella enterica subsp. enterica serovar typhimurium.
In data set [11] the test system is Salmonella typhimurium. In words: Toxic mutagenic effect in Salmonella Typhimurium TA1535 assessed as increase in reverse mutants at 5 mg/plate segment after 72 hrs at 37 degC in presence of aroclor 1254-induced rat liver S9 fraction by reverse mutation assay relative to untreated control. In kind it is toxicity, organism-based. To be noted: salmonella enterica subsp. enterica serovar typhimurium, s9, 72 h.

The subject of data set [12] is Salmonella typhimurium. In words: Toxic mutagenic effect in Salmonella Typhimurium TA98 assessed as increase in reverse mutants at 5 mg/plate segment after 72 hrs at 37 degC in presence of aroclor 1254-induced rat liver S9 fraction by reverse mutation assay relative to untreated control. In kind it is toxicity, organism-based. Conditions: salmonella enterica subsp. enterica serovar typhimurium, s9, 72 h.

For data set [13], the system named is Salmonella typhimurium. In words: Toxic mutagenic effect in Salmonella Typhimurium TA1537 assessed as increase in reverse mutants at 5 mg/plate segment after 72 hrs at 37 degC in presence of aroclor 1254-induced rat liver S9 fraction by reverse mutation assay relative to untreated control. In kind it is toxicity, organism-based. Conditions: salmonella enterica subsp. enterica serovar typhimurium, s9, 72 h.

In another data set the target is T1, Cytochrome P450 1A2 (Homo sapiens, UniProt P05177).
T1 sequence (P05177 whole entry): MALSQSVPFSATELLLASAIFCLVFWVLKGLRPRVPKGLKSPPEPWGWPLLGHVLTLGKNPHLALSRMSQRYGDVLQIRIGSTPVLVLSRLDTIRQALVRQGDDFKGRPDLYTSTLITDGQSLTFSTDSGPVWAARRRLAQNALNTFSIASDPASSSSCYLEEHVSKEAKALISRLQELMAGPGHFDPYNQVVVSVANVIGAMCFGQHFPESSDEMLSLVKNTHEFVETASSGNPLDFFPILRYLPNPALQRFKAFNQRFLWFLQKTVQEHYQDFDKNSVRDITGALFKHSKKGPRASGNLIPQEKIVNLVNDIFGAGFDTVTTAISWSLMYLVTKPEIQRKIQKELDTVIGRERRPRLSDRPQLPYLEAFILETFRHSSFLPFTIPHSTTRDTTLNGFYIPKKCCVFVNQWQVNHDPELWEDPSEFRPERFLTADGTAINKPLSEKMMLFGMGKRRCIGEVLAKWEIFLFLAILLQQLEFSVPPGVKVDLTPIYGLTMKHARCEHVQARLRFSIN
In words: Inhibition of CYP1A2 in human liver microsomes. Type of data set: ADME, Microsome.

Cytochrome P450 3A4, sequence (P08684 whole entry): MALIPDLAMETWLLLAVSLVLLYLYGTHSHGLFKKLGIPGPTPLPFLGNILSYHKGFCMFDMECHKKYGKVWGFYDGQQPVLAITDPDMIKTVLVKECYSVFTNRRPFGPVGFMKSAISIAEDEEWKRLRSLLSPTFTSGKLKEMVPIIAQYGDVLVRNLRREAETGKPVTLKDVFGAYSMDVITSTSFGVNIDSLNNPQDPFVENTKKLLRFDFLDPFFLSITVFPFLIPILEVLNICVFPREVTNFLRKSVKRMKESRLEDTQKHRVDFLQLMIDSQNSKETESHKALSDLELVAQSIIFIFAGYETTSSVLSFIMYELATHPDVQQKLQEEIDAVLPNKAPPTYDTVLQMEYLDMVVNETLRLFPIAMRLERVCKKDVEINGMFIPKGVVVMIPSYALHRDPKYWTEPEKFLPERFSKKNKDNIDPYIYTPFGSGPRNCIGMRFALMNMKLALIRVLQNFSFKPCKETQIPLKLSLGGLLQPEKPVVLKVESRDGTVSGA

Usually half-life stands for the time needed for the level to fall by half in the phase considered. As a reminder, the IC50 is the concentration at which inhibition is half-maximal. Consider `Clc1cccc(COc2cncc(N3CCNCC3)n2)c1`, for which the “fold change (FC)” value with Salmonella typhimurium [1] and in the data set on Salmonella typhimurium [2] was 3 in each case. Moreover, the half-life at 1 µM in data set [3] came to 4 min. Moreover, the half-life was 8 min in data set [4], > 90 min in [5] and 40 min in data set [6]. Besides, the 50% inhibitory concentration (IC50) on Cytochrome P450 3A4 is > 50 µM.
With `C[C@H](Cc1cccc(F)c1)Oc1nc(N2CCNC[C@H]2C)ncc1F`, the Activity entry in the data set with Salmonella typhimurium [7], in the data set with Salmonella typhimurium [9], in the data set on Salmonella typhimurium [10], with Salmonella typhimurium [11], in the data set with Salmonella typhimurium [12] and with Salmonella typhimurium [13] was “Non-toxic” throughout. Moreover, the “fold change (FC)” value in the data set on Salmonella typhimurium [8] is reported as 1.34. Moreover, the half-life at 1 µM in data set [3] was 13 min. The results for the half-life in [4], in data set [5] and in data set [6] were 20 min, > 90 min and 40 min, respectively. Besides, the IC50 was 0.4 µM at Cytochrome P450 1A2 and 4.9 µM against Cytochrome P450 3A4.
